Results reported in the CheMixHub viscosity set.
“And” between values parts separate entries of the source, which are not always exact repeats. Equal values may be shown once. ± gives the uncertainty stated by the source.

Test: xn = mol fraction of the nth substance listed

SMILES: C[N+](C)(C)CCO.[Cl-] + OCC(O)CO
- viscosity (293.15 K, 100 kPa, x1 = 0.3): 519 ± 41 mPa·s
- viscosity (293.15 K, 100 kPa, x1 = 0.333): 561.4 ± 28 mPa·s
- viscosity (293.15 K, 101.3 kPa, x2 = 0.7): 516.1 ± 52 mPa·s
- viscosity (293.42 K, 101.33 kPa, x2 = 0.8): 167.1 ± 49 mPa·s
- viscosity (293.43 K, 101.33 kPa, x2 = 0.7): 267.9 ± 72 mPa·s
- viscosity (294.19 K, 101.33 kPa, x2 = 0.7): 254.1 ± 64 mPa·s
- viscosity (294.4 K, 101.33 kPa, x2 = 0.8): 156.8 ± 36 mPa·s
- viscosity (295.2 K, 101.33 kPa, x2 = 0.8): 148.2 ± 43 mPa·s
- viscosity (295.27 K, 101.33 kPa, x2 = 0.7): 236.6 ± 62 mPa·s
- viscosity (296.05 K, 101.33 kPa, x2 = 0.8): 138.9 ± 40 mPa·s
- viscosity (296.09 K, 101.33 kPa, x2 = 0.7): 222.7 ± 57 mPa·s
- viscosity (296.85 K, 101.33 kPa, x2 = 0.7): 209.9 ± 53 mPa·s
- viscosity (296.95 K, 101.33 kPa, x2 = 0.8): 130 ± 37 mPa·s
- viscosity (297.09 K, 101 kPa, x1 = 0.333): 348.4 ± 12 mPa·s
- viscosity (297.68 K, 101.33 kPa, x2 = 0.8): 123.2 ± 35 mPa·s
- viscosity (297.78 K, 101.33 kPa, x2 = 0.7): 195.3 ± 49 mPa·s
- viscosity (298.15 K, 100 kPa, x1 = 0.3): 368 ± 25 mPa·s
- viscosity (298.15 K, 100 kPa, x1 = 0.33): 348 ± 23 mPa·s
- viscosity (298.15 K, 100 kPa, x1 = 0.333): 259 ± 9 mPa·s and 386.3 ± 18 mPa·s
- viscosity (298.15 K, 101 kPa, x1 = 0.167): 304 ± 32 mPa·s
- viscosity (298.15 K, 101 kPa, x1 = 0.2): 353.5 ± 30 mPa·s and 244 ± 26 mPa·s
- viscosity (298.15 K, 101 kPa, x1 = 0.25): 338.7 ± 29 mPa·s and 261 ± 28 mPa·s
- viscosity (298.15 K, 101 kPa, x1 = 0.33): 318.1 ± 26 mPa·s
- viscosity (298.15 K, 101 kPa, x1 = 0.333): 200 ± 21 mPa·s and 283.2 ± 13 mPa·s
- viscosity (298.15 K, 101.33 kPa, x2 = 0.7): 301 ± 34 mPa·s
- viscosity (298.73 K, 101.33 kPa, x2 = 0.7): 184.5 ± 46 mPa·s
- viscosity (298.74 K, 101.33 kPa, x2 = 0.8): 115.2 ± 33 mPa·s
- viscosity (299.46 K, 101.33 kPa, x2 = 0.7): 174.9 ± 43 mPa·s
- viscosity (299.66 K, 101.33 kPa, x2 = 0.8): 108.3 ± 30 mPa·s
- viscosity (300.32 K, 101.33 kPa, x2 = 0.7): 163 ± 40 mPa·s
- viscosity (300.43 K, 101.33 kPa, x2 = 0.8): 101.9 ± 28 mPa·s
- viscosity (301.05 K, 101.33 kPa, x2 = 0.8): 96.5 ± 26 mPa·s
- viscosity (301.22 K, 101.33 kPa, x2 = 0.7): 152.2 ± 37 mPa·s
- viscosity (301.89 K, 101 kPa, x1 = 0.333): 263.5 ± 8.4 mPa·s
- viscosity (302.07 K, 101.33 kPa, x2 = 0.7): 144.8 ± 34 mPa·s
- viscosity (302.09 K, 101.33 kPa, x2 = 0.8): 90.62 ± 25 mPa·s
- viscosity (303 K, 101 kPa, x1 = 0.3333): 428.4 ± 32 mPa·s
- viscosity (303.03 K, 101.33 kPa, x2 = 0.7): 137 ± 32 mPa·s
- viscosity (303.04 K, 101.33 kPa, x2 = 0.8): 85.38 ± 24 mPa·s
- viscosity (303.15 K, 100 kPa, x1 = 0.33): 255.6 ± 14 mPa·s
- viscosity (303.15 K, 100 kPa, x1 = 0.333): 290.9 ± 13 mPa·s
- viscosity (303.15 K, 101 kPa, x1 = 0.2): 259.6 ± 19 mPa·s
- viscosity (303.15 K, 101 kPa, x1 = 0.25): 250.4 ± 18 mPa·s
- viscosity (303.15 K, 101 kPa, x1 = 0.33): 239 ± 17 mPa·s
- viscosity (303.97 K, 101.33 kPa, x2 = 0.7): 128 ± 30 mPa·s
- viscosity (303.97 K, 101.33 kPa, x2 = 0.8): 81.55 ± 22 mPa·s
- viscosity (304.77 K, 101.33 kPa, x2 = 0.7): 121.8 ± 28 mPa·s
- viscosity (304.87 K, 101.33 kPa, x2 = 0.8): 76.53 ± 21 mPa·s
- viscosity (305.64 K, 101.33 kPa, x2 = 0.7): 114.5 ± 26 mPa·s
- viscosity (305.7 K, 101.33 kPa, x2 = 0.8): 72.8 ± 19 mPa·s
- viscosity (306.52 K, 101.33 kPa, x2 = 0.7): 109 ± 25 mPa·s
- viscosity (306.58 K, 101.33 kPa, x2 = 0.8): 69.11 ± 19 mPa·s
- viscosity (307.07 K, 101 kPa, x1 = 0.333): 187 ± 5 mPa·s
- viscosity (307.4 K, 101.33 kPa, x2 = 0.7): 103.9 ± 24 mPa·s
- viscosity (307.47 K, 101.33 kPa, x2 = 0.8): 65.09 ± 18 mPa·s
- viscosity (308 K, 101 kPa, x1 = 0.3333): 312 ± 13 mPa·s
- viscosity (308.15 K, 100 kPa, x1 = 0.3): 198 ± 9 mPa·s
- viscosity (308.15 K, 100 kPa, x1 = 0.33): 190.3 ± 8.6 mPa·s
- viscosity (308.15 K, 100 kPa, x1 = 0.333): 216.8 ± 9.6 mPa·s
- viscosity (308.15 K, 101 kPa, x1 = 0.2): 192.5 ± 12 mPa·s
- viscosity (308.15 K, 101 kPa, x1 = 0.25): 187 ± 11 mPa·s
- viscosity (308.15 K, 101 kPa, x1 = 0.33): 181.2 ± 10 mPa·s
- viscosity (308.15 K, 101.3 kPa, x2 = 0.7): 194.5 ± 12 mPa·s
- viscosity (308.15 K, 101.33 kPa, x2 = 0.7): 96.86 ± 22 mPa·s
- viscosity (308.34 K, 101.33 kPa, x2 = 0.8): 61.7 ± 16 mPa·s
- viscosity (309.15 K, 101.33 kPa, x2 = 0.8): 58.96 ± 16 mPa·s
- viscosity (309.17 K, 101.33 kPa, x2 = 0.7): 92 ± 20 mPa·s
- viscosity (309.94 K, 101.33 kPa, x2 = 0.7): 88.35 ± 20 mPa·s
- viscosity (310 K, 101.33 kPa, x2 = 0.8): 56.2 ± 15 mPa·s
- viscosity (310.82 K, 101.33 kPa, x2 = 0.8): 53.22 ± 14 mPa·s
- viscosity (310.85 K, 101.33 kPa, x2 = 0.7): 82.38 ± 18 mPa·s
- viscosity (311.67 K, 101.33 kPa, x2 = 0.8): 50.6 ± 13 mPa·s
- viscosity (311.74 K, 101.33 kPa, x2 = 0.7): 79.15 ± 17 mPa·s
- viscosity (312.13 K, 101 kPa, x1 = 0.333): 144.5 ± 3.1 mPa·s
- viscosity (312.62 K, 101.33 kPa, x2 = 0.7): 74.77 ± 16 mPa·s
- viscosity (312.66 K, 101.33 kPa, x2 = 0.8): 47.68 ± 13 mPa·s
- viscosity (313 K, 101 kPa, x1 = 0.3333): 222.4 ± 8.5 mPa·s
- viscosity (313.15 K, 100 kPa, x1 = 0.3): 148 ± 6 mPa·s
- viscosity (313.15 K, 100 kPa, x1 = 0.33): 145.1 ± 5.3 mPa·s
- viscosity (313.15 K, 100 kPa, x1 = 0.333): 165.7 ± 13 mPa·s and 161.3 ± 7 mPa·s
- viscosity (313.15 K, 101 kPa, x1 = 0.167): 119 ± 12 mPa·s
- viscosity (313.15 K, 101 kPa, x1 = 0.2): 144.2 ± 6.9 mPa·s and 90 ± 9 mPa·s
- viscosity (313.15 K, 101 kPa, x1 = 0.25): 140.9 ± 6.6 mPa·s and 93 ± 9 mPa·s
- viscosity (313.15 K, 101 kPa, x1 = 0.33): 138.6 ± 6.5 mPa·s
- viscosity (313.15 K, 101 kPa, x1 = 0.333): 85 ± 9 mPa·s
- viscosity (313.4 K, 101.33 kPa, x2 = 0.7): 70.27 ± 14 mPa·s
- viscosity (313.68 K, 101.33 kPa, x2 = 0.8): 45.67 ± 9.3 mPa·s
- viscosity (314.3 K, 101.33 kPa, x2 = 0.7): 67.45 ± 15 mPa·s
- viscosity (314.49 K, 101.33 kPa, x2 = 0.8): 43.42 ± 11 mPa·s
- viscosity (315.23 K, 101.33 kPa, x2 = 0.8): 41.47 ± 11 mPa·s
- viscosity (315.26 K, 101.33 kPa, x2 = 0.7): 64.39 ± 14 mPa·s
- viscosity (315.79 K, 101.33 kPa, x2 = 0.8): 40.01 ± 8.1 mPa·s
- viscosity (316.19 K, 101.33 kPa, x2 = 0.7): 60.28 ± 12 mPa·s
- viscosity (316.96 K, 101.33 kPa, x2 = 0.8): 38.19 ± 7.8 mPa·s
- viscosity (317.25 K, 101.33 kPa, x2 = 0.7): 57.92 ± 12 mPa·s
- viscosity (317.43 K, 101 kPa, x1 = 0.333): 110.5 ± 1.9 mPa·s
- viscosity (317.78 K, 101.33 kPa, x2 = 0.8): 35.41 ± 9.3 mPa·s
- viscosity (317.92 K, 101.33 kPa, x2 = 0.7): 55.4 ± 12 mPa·s
- viscosity (318 K, 101 kPa, x1 = 0.3333): 159.6 ± 5.3 mPa·s
- viscosity (318.15 K, 100 kPa, x1 = 0.3): 116 ± 4 mPa·s
- viscosity (318.15 K, 100 kPa, x1 = 0.333): 125.2 ± 5.3 mPa·s
- viscosity (318.15 K, 101 kPa, x1 = 0.2): 109 ± 4 mPa·s
- viscosity (318.15 K, 101 kPa, x1 = 0.25): 107.2 ± 3.8 mPa·s
- viscosity (318.15 K, 101 kPa, x1 = 0.33): 106.9 ± 3.8 mPa·s
- viscosity (318.15 K, 101 kPa, x1 = 0.333): 91 ± 3.9 mPa·s
- viscosity (318.15 K, 101.3 kPa, x2 = 0.7): 114.4 ± 4.2 mPa·s
- viscosity (318.42 K, 101.33 kPa, x2 = 0.8): 35.11 ± 9.2 mPa·s
- viscosity (318.59 K, 101.33 kPa, x2 = 0.7): 53.65 ± 12 mPa·s
- viscosity (319.37 K, 101.33 kPa, x2 = 0.8): 33.09 ± 8.8 mPa·s
- viscosity (319.53 K, 101.33 kPa, x2 = 0.7): 51.45 ± 11 mPa·s
- viscosity (320.2 K, 101.33 kPa, x2 = 0.8): 31.05 ± 6.3 mPa·s
- viscosity (320.45 K, 101.33 kPa, x2 = 0.7): 48.65 ± 9.9 mPa·s
- viscosity (321.14 K, 101.33 kPa, x2 = 0.8): 29.69 ± 6 mPa·s
- viscosity (321.38 K, 101.33 kPa, x2 = 0.7): 46.23 ± 9.4 mPa·s
- viscosity (322.2 K, 101.33 kPa, x2 = 0.7): 44.48 ± 9 mPa·s
- viscosity (322.23 K, 101 kPa, x1 = 0.333): 93.48 ± 1.4 mPa·s
- viscosity (323 K, 101 kPa, x1 = 0.3333): 123.5 ± 3.7 mPa·s
- viscosity (323.02 K, 101.33 kPa, x2 = 0.7): 42.72 ± 8.7 mPa·s
- viscosity (323.15 K, 100 kPa, x1 = 0.3): 89.7 ± 2.5 mPa·s
- viscosity (323.15 K, 100 kPa, x1 = 0.33): 88.7 ± 1.8 mPa·s
- viscosity (323.15 K, 100 kPa, x1 = 0.333): 98.89 ± 4.1 mPa·s
- viscosity (323.15 K, 101 kPa, x1 = 0.2): 83.04 ± 2.1 mPa·s
- viscosity (323.15 K, 101 kPa, x1 = 0.25): 82.18 ± 2.1 mPa·s
- viscosity (323.15 K, 101 kPa, x1 = 0.33): 83.12 ± 2.1 mPa·s
- viscosity (323.15 K, 101.3 kPa, x2 = 0.7): 88.65 ± 2.3 mPa·s
